Consider twelve compounds from US9669034B2, “4-aryl-N-phenyl-1,3,5-triazin-2-amines containing a sulfoximine group” (BAYER INTELLECTUAL PROPERTY GMBH, priority 2011, dated 2017).

The subject of test [1] is B16F10 mouse melanoma cells. Nature of the test: Proliferation assay (crystal violet), B16F10. In kind it is cell-based. The conditions noted are these: Mus musculus, B16-F10, B16F10 cells, Method 3; read-out: Inhibition of B16F10 cell proliferation, IC50. How it is done: (§1) Cultivated tumour cells (NCI-H460, human non-small cell lung carcinoma cells, ATCC HTB-177; DU145, hormone-independent human prostate carcinoma cells, ATCC HTB-81; HeLa-MaTu, human cervical carcinoma cells, EPO-GmbH, Berlin; HeLa-MaTu-ADR, multidrug-resistant human cervical carcinoma cells, EPO-GmbH, Berlin; HeLa human cervical tumour cells, ATCC CCL-2; Caco-2 human colorectal carcinoma, ATCC HTB-37; B16F10 mouse melanoma cells, ATCC CRL-6475) were plated at a density of 5000 cells/well (DU145, HeLa-MaTu-ADR), 3000 cells/well (NCI-H460, HeLa-MaTu, HeLa), 1500 cells/well (Caco-2), or 1000 cells/well (B16 F10) in a 96-well multititer plate in 200 μL of their respective growth medium supplemented 10% fetal calf serum. After 24 hours, the cells of one plate (zero-point plate) were stained with crystal violet (see below), while the medium of the other plates was replaced by fresh culture medium (200 μL), to which the test substances were added in various concentrations (0 M, as well as in the range of […]; the final concentration of the solvent dimethylsulfoxide was 0.5%). The cells were incubated for 4 days in the presence of test substances. Cell proliferation was determined by staining the cells with crystal violet: the cells were fixed by adding 20 μL/measuring point of an 11% glutaric aldehyde solution for 15 minutes at room temperature. After three washing cycles of the fixed cells with water, the plates were dried at room temperature. The cells were stained by adding 100 μL/measuring point of a 0.1% crystal violet solution (pH 3.0). After three washing cycles of the stained cells with water, the plates were dried at room temperature. The dye was dissolved by adding 100 μL/measuring point of a 10% acetic acid solution. The absorbance was determined by photometry at a wavelength of 595 nm. The change of cell number, in percent, was calculated by normalization of the measured values to the absorbance values of the zero-point plate (=0%) and the absorbance of the untreated (0 M) cells (=100%). The IC50 values were determined by means of a 4 parameter fit.

The test system of test [2] is Caco-2 human colorectal carcinoma. Nature of the test: Proliferation assay (crystal violet), Caco-2. The conditions noted are these: Homo sapiens, Caco-2, Caco-2 cells, Method 3; read-out: Inhibition of Caco-2 cell proliferation, IC50. It is filed as cell-based. The protocol:
as §1

The subject of test [3] is HeLa human cervical tumour cells. Kind of test: Proliferation assay (crystal violet), HeLa. The following applies: Homo sapiens, HeLa, Method 3, read-out: Inhibition of HeLa cell proliferation, IC50. It is filed as cell-based. How it is done: as §1
For test [4], the target named is CDK2/CycE (Homo sapiens (Human), UniProt P24941). Nature of the test: CDK2/CycE kinase assay (TR-FRET). It is filed as biochemical. The following applies: Method 2. The essentials: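 Enzyme was GST-tagged human CDK2 with GST-tagged human CycE, expressed in Sf9 insect cells and glutathione-affinity purified. The kinase reaction used a biotinylated peptide substrate, with inhibition measured by TR-FRET.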
For orientation: TR-FRET usually uses a lanthanide donor and a delayed reading to cut background.

Test [5] concerns the target CDK9/CycT1 (Homo sapiens (Human), UniProt P50750). Kind of test: CDK9/CycT1 kinase assay (TR-FRET). It is filed as biochemical. The following applies: Method 1. The essentials:
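Recombinant full-length His-tagged human CDK9/CycT1, insect-cell expressed and Ni-NTA purified. Substrate is a biotinylated peptide (biotin-Ttds-linked). Kinase inhibition is read out by TR-FRET.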

In test [6] the test system is NCI-H460, human non-small cell lung carcinoma cells. Kind of test: Proliferation assay (crystal violet), NCI-H460. In kind it is cell-based. The following applies: Homo sapiens, NCI-H460, NCI-H460 cells, Method 3; read-out: Inhibition of NCI-H460 cell proliferation, IC50. How it is done:
as §1

The test system of test [7] is DU145, hormone-independent human prostate carcinoma cells. Nature of the test: Proliferation assay (crystal violet), DU145. The conditions noted are these: Homo sapiens, DU-145, DU145 cells, Method 3; read-out: Inhibition of DU145 cell proliferation, IC50. In kind it is cell-based. How it is done: as §1
The subject of test [8] is HeLa-MaTu-ADR, multidrug-resistant human cervical carcinoma cells. Nature of the test: Proliferation assay (crystal violet), HeLa-MaTu-ADR. It is filed as cell-based. The following applies: Homo sapiens, HeLa, Method 3, read-out: Inhibition of HeLa/MaTu/ADR cell proliferation, IC50. How it is done: as §1

Sequence of CDK9/CycT1 (P50750 whole entry): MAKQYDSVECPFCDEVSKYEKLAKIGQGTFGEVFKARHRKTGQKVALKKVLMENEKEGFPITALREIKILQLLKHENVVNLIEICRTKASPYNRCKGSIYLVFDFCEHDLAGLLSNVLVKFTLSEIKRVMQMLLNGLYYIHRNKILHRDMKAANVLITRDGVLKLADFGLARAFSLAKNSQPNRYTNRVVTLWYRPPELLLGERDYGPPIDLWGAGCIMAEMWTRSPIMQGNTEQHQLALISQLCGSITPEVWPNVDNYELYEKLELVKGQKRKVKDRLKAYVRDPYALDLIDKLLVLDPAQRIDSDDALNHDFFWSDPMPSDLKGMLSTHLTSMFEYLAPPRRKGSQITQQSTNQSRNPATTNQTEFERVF
Sequence of CDK9/CycT1 (O60563 whole entry partner): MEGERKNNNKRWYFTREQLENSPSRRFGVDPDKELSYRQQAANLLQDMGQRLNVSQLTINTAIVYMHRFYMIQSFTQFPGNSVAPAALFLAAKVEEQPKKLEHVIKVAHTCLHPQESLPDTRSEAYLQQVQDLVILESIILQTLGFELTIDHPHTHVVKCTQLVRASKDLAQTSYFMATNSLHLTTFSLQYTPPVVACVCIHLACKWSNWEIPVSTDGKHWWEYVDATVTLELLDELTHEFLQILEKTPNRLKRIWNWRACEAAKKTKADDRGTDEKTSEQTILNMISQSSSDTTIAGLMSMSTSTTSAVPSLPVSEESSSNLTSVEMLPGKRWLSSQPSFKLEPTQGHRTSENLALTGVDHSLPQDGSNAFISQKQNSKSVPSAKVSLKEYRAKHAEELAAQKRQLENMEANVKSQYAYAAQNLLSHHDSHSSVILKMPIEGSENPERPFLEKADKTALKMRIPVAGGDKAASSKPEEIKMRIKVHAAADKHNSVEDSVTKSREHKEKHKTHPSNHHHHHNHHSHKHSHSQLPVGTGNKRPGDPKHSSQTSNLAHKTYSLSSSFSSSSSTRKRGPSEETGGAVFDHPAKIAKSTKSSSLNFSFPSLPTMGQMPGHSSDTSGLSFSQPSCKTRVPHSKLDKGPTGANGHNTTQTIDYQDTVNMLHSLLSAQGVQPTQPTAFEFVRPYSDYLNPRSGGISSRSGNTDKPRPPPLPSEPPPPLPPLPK

`CNC(=O)N=S(C)(=O)Cc1cccc(Nc2ncnc(-c3ccc(F)cc3OC)n2)c1` (racemic) [Example 15, (rac)-1-[(3-{[4-(4-Fluoro-2-methoxyphenyl)-1,3,5-triazin-2-yl]amino}benzyl)(methyl)oxido-λ^6-sulfanylidene]-3-methylurea]: the IC50 in test [1] is 620 nM; in test [2], 1000 nM; in test [3], 390 nM; in test [4] it was 930 nM; in test [5] it was 7 nM; in test [6], 1000 nM. The IC50 in test [7] is 370 nM; in test [8], 940 nM.

For `COc1cc(F)ccc1-c1ncnc(Nc2cccc(CS(C)(=O)=NC(C)=O)c2)n1` (racemic) [Example 24, (rac)-N-[(3-{[4-(4-fluoro-2-methoxyphenyl)-1,3,5-triazin-2-yl]amino}benzyl)(methyl)oxido-λ^6-sulfanylidene]acetamide], the IC50 in test [1] was found to be 940 nM; in test [2], 710 nM; in test [3], 490 nM; in test [4], 1800 nM; in test [5] it was 11 nM; in test [6], 760 nM. Moreover, the IC50 in test [7] stood at 680 nM; in test [8], 520 nM.

In the case of `CCOC(=O)N=S(C)(=O)Cc1cccc(Nc2ncnc(-c3cccc4c3OCCC4)n2)c1` (racemic) [Example 29, (rac)-Ethyl [(3-{[4-(3,4-dihydro-2H-chromen-8-yl)-1,3,5-triazin-2-yl]amino}benzyl)(methyl)oxido-λ^6-sulfanylidene]carbamate], the IC50 stood at 960 nM in test [1]; 760 nM in test [2]; 510 nM in test [3]; 1200 nM in test [4]; 13 nM in test [5]; 720 nM in test [6]. Besides, the IC50 in test [7] was 540 nM; in test [8], 760 nM.

As to `CCOC(=O)N=S(C)(=O)Cc1cccc(Nc2ncnc(-c3cccc4c3OCCO4)n2)c1` (racemic) [Example 37, (rac)-Ethyl [(3-{[4-(2,3-dihydro-1,4-benzodioxin-5-yl)-1,3,5-triazin-2-yl]amino}benzyl)(methyl)oxido-λ^6-sulfanylidene]carbamate], the IC50 in test [1] was 720 nM; in test [2], 810 nM; in test [3] it was 630 nM; in test [4] it was 2300 nM; in test [5], 9 nM; in test [6], 920 nM. Also, the IC50 in test [7] is 500 nM; in test [8], 750 nM.

Take `CCOC(=O)N=S(C)(=O)Cc1cccc(Nc2ncnc(-c3ccccc3OCc3ccc(F)cc3)n2)c1` (racemic) [Example 42, (rac)-Ethyl [{3-[(4-{2-[(4-fluorobenzyl)oxy]phenyl}-1,3,5-triazin-2-yl)amino]benzyl}(methyl)oxido-λ^6-sulfanylidene]carbamate]: the IC50 in test [1] worked out at 680 nM; in test [2], 680 nM; in test [3], 610 nM; in test [4] it was 1600 nM; in test [5] it was 5 nM; in test [6], 370 nM. The IC50 in test [7] was 590 nM; in test [8] it was 520 nM.

In the case of `CS(=N)(=O)Cc1cccc(Nc2ncnc(-c3ccccc3OCc3ccc(F)cc3)n2)c1` (racemic) [Example 43, (rac)-4-{2-[(4-Fluorobenzyl)oxy]phenyl}-N-{3-[(S-methylsulfonimidoyl)methyl]phenyl}-1,3,5-triazin-2-amine], the IC50 was 800 nM in test [1]; 1100 nM in test [2]; 590 nM in test [3]; 1900 nM in test [4]; 9 nM in test [5]; 530 nM in test [6]. For the same compound, the IC50 in test [7] worked out at 800 nM; in test [8], 1100 nM.

With `COc1cc(F)ccc1-c1ncnc(Nc2cccc(CS(C)(=O)=NC#N)c2)n1` (racemic) [Example 48, (rac)-[(3-{[4-(4-fluoro-2-methoxyphenyl)-1,3,5-triazin-2-yl]amino}benzyl)(methyl)oxido-λ^6-sulfanylidene]cyanamide], the IC50 in test [1] is 320 nM; in test [2], 420 nM; in test [3], 330 nM; in test [4], 630 nM; in test [5], 13 nM; in test [6], 410 nM. Besides, the IC50 in test [7] worked out at 280 nM; in test [8] it was 400 nM.

For the compound `COc1cc(F)ccc1-c1ncnc(Nc2cc(F)cc(CS(C)(=N)=O)c2)n1` (racemic) [Example 52, (rac)-4-(4-Fluoro-2-methoxyphenyl)-N-{3-fluoro-5-[(S-methylsulfonimidoyl)methyl]phenyl}-1,3,5-triazin-2-amine], the IC50 turned out to be 550 nM in test [1]; 690 nM in test [2]; 410 nM in test [3]; 1000 nM in test [4]; 650 nM in test [6]; 340 nM in test [7]. Besides, in test [8], the IC50 was found to be 140 nM.

Turning to `CS(=N)(=O)Cc1cccc(Nc2ncnc(-c3ccc(F)cc3OCc3ccc(F)cc3)n2)c1` (racemic) [Example 56, (rac)-4-{4-Fluoro-2-[(4-fluorobenzyl)oxy]phenyl}-N-{3-[(S-methylsulfonimidoyl)methyl]phenyl}-1,3,5-triazin-2-amine], the IC50 in test [1] is 470 nM; in test [2], 860 nM; in test [3] it was 370 nM; in test [4] it was 410 nM; in test [5] it was 6 nM; in test [6] it was 350 nM. Further, the IC50 in test [7] was determined as 370 nM; in test [8], 780 nM.

`COc1cc(F)ccc1-c1ncnc(Nc2cc(Cl)cc(CS(C)(=N)=O)c2)n1` (racemic) [Example 64, (rac)-N-{3-Chloro-5-[(S-methylsulfonimidoyl)methyl]phenyl}-4-(4-fluoro-2-methoxyphenyl)-1,3,5-triazin-2-amine]: the IC50 in test [1] is 320 nM; in test [2], 350 nM; in test [3] it was 400 nM; in test [4] it was 250 nM; in test [5] it was 15 nM; in test [6], 360 nM. The IC50 was 290 nM in test [7] and 280 nM in test [8].

Take `CS(=N)(=O)Cc1cccc(Nc2ncnc(-c3ccc(F)cc3OCc3ccncc3)n2)c1` (racemic) [Example 68, (rac)-4-[4-Fluoro-2-(pyridin-4-ylmethoxy)phenyl]-N-{3-[(S-methylsulfonimidoyl)methyl]phenyl}-1,3,5-triazin-2-amine]: the IC50 was 740 nM in test [1]; 1300 nM in test [2]; 410 nM in test [3]; 1500 nM in test [4]; 14 nM in test [5]; 1100 nM in test [6]. Also, the figures for the IC50 in test [7] and in test [8] were 460 nM and 3000 nM, respectively.

`COc1cc(F)ccc1-c1ncnc(Nc2cc(F)cc(CS(C)(=O)=NC#N)c2)n1` (racemic) [Example 70, (rac)-[(3-Fluoro-5-{[4-(4-fluoro-2-methoxyphenyl)-1,3,5-triazin-2-yl]amino}benzyl)(methyl)oxido-λ^6-sulfanylidene]cyanamide]: the IC50 worked out at 130 nM in test [1]; 170 nM in test [2]; 150 nM in test [3]; 180 nM in test [4]; 6 nM in test [5]; 230 nM in test [6]. Also, the IC50 worked out at 79 nM in test [7] and 120 nM in test [8].
